Reference: PubChem BioAssay AID1963863 (Molecular Pharmacology Branch, DTP, NCI, 2024)

System: 931267-113-T-J1-PDC KRAS spheroid with HUVEC/MSC, viability
Test: Anticancer human tumor 931267-113-T-J1-PDC patient-derived colon adenocarcinoma cell line growth inhibition [KRAS2]
Details: for viability, T/C: stronger effect = lower value
Outline: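 KRAS-mutant tumor cells were grown as spheroids with HUVEC endothelial cells and human MSCs as stroma. Targeted agents were tested alone and with KRAS pathway inhibitors. Doses started at or near clinical Cmax, or 10 microM, descending half-log.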

[1] = curve of first compound, second compound 0.1 µM
[2] = curve of first compound, second compound 0.316 µM
[3] = curve of first compound, second compound 1 µM
[4] = curve of first compound, second compound 3.16 µM
[5] = curve of first compound, second compound 10 µM
[6] = second compound 0.1 µM, first compound 0.000316 µM
[7] = second compound 0.1 µM, first compound 0.001 µM
[8] = second compound 0.1 µM, first compound 0.00316 µM
[9] = second compound 0.1 µM, first compound 0.01 µM
[10] = second compound 0.1 µM, first compound 0.0316 µM
[11] = second compound 0.316 µM, first compound 0.000316 µM
[12] = second compound 0.316 µM, first compound 0.001 µM
[13] = second compound 0.316 µM, first compound 0.00316 µM
[14] = second compound 0.316 µM, first compound 0.01 µM
[15] = second compound 0.316 µM, first compound 0.0316 µM
[16] = second compound 1 µM, first compound 0.000316 µM
[17] = second compound 1 µM, first compound 0.001 µM
[18] = second compound 1 µM, first compound 0.00316 µM
[19] = second compound 1 µM, first compound 0.01 µM
[20] = second compound 1 µM, first compound 0.0316 µM
[21] = second compound 3.16 µM, first compound 0.000316 µM
[22] = second compound 3.16 µM, first compound 0.001 µM
[23] = second compound 3.16 µM, first compound 0.00316 µM
[24] = second compound 3.16 µM, first compound 0.01 µM
[25] = second compound 3.16 µM, first compound 0.0316 µM
[26] = second compound 10 µM, first compound 0.00316 µM
[27] = second compound 10 µM, first compound 0.01 µM
[28] = second compound 10 µM, first compound 0.0316 µM
[29] = second compound 0.1 µM, first compound 0.1 µM
[30] = second compound 0.1 µM, first compound 0.316 µM
[31] = second compound 0.1 µM, first compound 1 µM
[32] = second compound 0.1 µM, first compound 3.16 µM
[33] = second compound 0.1 µM, first compound 10 µM
[34] = second compound 0.316 µM, first compound 0.1 µM
[35] = second compound 0.316 µM, first compound 0.316 µM
[36] = second compound 0.316 µM, first compound 1 µM
[37] = second compound 0.316 µM, first compound 3.16 µM
[38] = second compound 0.316 µM, first compound 10 µM
[39] = second compound 1 µM, first compound 0.1 µM
[40] = second compound 1 µM, first compound 0.316 µM
[41] = second compound 1 µM, first compound 1 µM
[42] = second compound 1 µM, first compound 3.16 µM
[43] = second compound 1 µM, first compound 10 µM
[44] = second compound 3.16 µM, first compound 0.1 µM
[45] = second compound 3.16 µM, first compound 0.316 µM
[46] = second compound 3.16 µM, first compound 1 µM
[47] = second compound 3.16 µM, first compound 3.16 µM
[48] = second compound 3.16 µM, first compound 10 µM
[49] = second compound 10 µM, first compound 0.1 µM
[50] = second compound 10 µM, first compound 0.316 µM
[51] = second compound 10 µM, first compound 1 µM
[52] = second compound 10 µM, first compound 3.16 µM
[53] = second compound 10 µM, first compound 10 µM
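Further: compound exposure lasted 7 days before the readout.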
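Wherever viability, T/C is given: 100% = DMSO vehicle control viability.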

CC(=O)Nc1cccc(-n2c(=O)n(C3CC3)c(=O)c3c(Nc4ccc(I)cc4F)n(C)c(=O)c(C)c32)c1 + C=CC(=O)N1CCN(c2nc(=O)n(-c3c(C)ccnc3C(C)C)c3nc(-c4c(O)cccc4F)c(F)cc23)C(C)C1
IC50 [1]: 10.5 nM | IC50 [2]: 9.41 nM | IC50 [3]: 11.3 nM | IC50 [4]: 31.6 nM | IC50 [5]: 2.79 nM | viability, T/C (second compound 0.1 µM, first compound 0.0001 µM): 88.7% | viability, T/C [6]: 81.9% | viability, T/C [7]: 66.7% | viability, T/C [8]: 60.1% | viability, T/C [9]: 62.9% | viability, T/C [10]: 9.67% | viability, T/C (second compound 0.316 µM, first compound 0.0001 µM): 97.1% | viability, T/C [11]: 94.5% | viability, T/C [12]: 74.1% | viability, T/C [13]: 71.3% | viability, T/C [14]: 53.8% | viability, T/C [15]: 10.6% | viability, T/C (second compound 1 µM, first compound 0.0001 µM): 88.5% | viability, T/C [16]: 97.4% | viability, T/C [17]: 93.9% | viability, T/C [18]: 59.5% | viability, T/C [19]: 62.6% | viability, T/C [20]: 12.9% | viability, T/C (second compound 3.16 µM, first compound 0.0001 µM): 123% | viability, T/C [21]: 99% | viability, T/C [22]: 62.8% | viability, T/C [23]: 54% | viability, T/C [24]: 64.7% | viability, T/C [25]: 19.6% | viability, T/C (second compound 10 µM, first compound 0.0001 µM): 85.8% | viability, T/C (second compound 10 µM, first compound 0.000316 µM): 82.4% | viability, T/C (second compound 10 µM, first compound 0.001 µM): 49.1% | viability, T/C [26]: 50.9% | viability, T/C [27]: 44.7% | viability, T/C [28]: 28.3%

CC1(C)CCC(CN2CCN(c3ccc(C(=O)NS(=O)(=O)c4ccc(NCC5CCOCC5)c([N+](=O)[O-])c4)c(Oc4cnc5[nH]ccc5c4)c3)CC2)=C(c2ccc(Cl)cc2)C1 + CC1OCC2(CCN(c3cnc(Sc4ccnc(N)c4Cl)c(N)n3)CC2)C1N
IC50 [1]: 1710 nM | IC50 [2]: 1640 nM | IC50 [3]: 1740 nM | IC50 [4]: 1670 nM | IC50 [5]: 1660 nM | viability, T/C [10]: 104% | viability, T/C [29]: 84.1% | viability, T/C [30]: 87.8% | viability, T/C [31]: 75.7% | viability, T/C [32]: 20.9% | viability, T/C [33]: 8.53% | viability, T/C [15]: 91% | viability, T/C [34]: 81.3% | viability, T/C [35]: 73.2% | viability, T/C [36]: 72.8% | viability, T/C [37]: 20.7% | viability, T/C [38]: 3.06% | viability, T/C [20]: 84.9% | viability, T/C [39]: 75.9% | viability, T/C [40]: 67.5% | viability, T/C [41]: 81.3% | viability, T/C [42]: 20.5% | viability, T/C [43]: 1.45% | viability, T/C [25]: 61.1% | viability, T/C [44]: 77.8% | viability, T/C [45]: 70.2% | viability, T/C [46]: 70.6% | viability, T/C [47]: 25% | viability, T/C [48]: 0.6% | viability, T/C [28]: 83.7% | viability, T/C [49]: 77% | viability, T/C [50]: 94.5% | viability, T/C [51]: 85.9% | viability, T/C [52]: 5.34% | viability, T/C [53]: 0.28%

CC(=O)Nc1cccc(-n2c(=O)n(C3CC3)c(=O)c3c(Nc4ccc(I)cc4F)n(C)c(=O)c(C)c32)c1
viability, T/C (compound 0.0001 µM): 92.7% [middle of 5 runs] | viability, T/C (compound 0.000316 µM): 89.7% [middle of 5 runs] | viability, T/C (compound 0.001 µM): 84.2% [middle of 5 runs] | viability, T/C (compound 0.00316 µM): 64.2% [middle of 5 runs] | viability, T/C (compound 0.01 µM): 55% [middle of 5 runs] | viability, T/C (compound 0.0316 µM): 14% [middle of 5 runs] | IC50 (curve of compound): 9.89 nM [middle of 5 runs]

CC(C)n1nc(-c2ccc3oc(N)nc3c2)c2c(N)ncnc21 + C=CC(=O)N1CCN(c2nc(OCC3CCCN3C)nc3c2CCN(c2cccc4cccc(C)c24)C3)CC1CC#N
IC50 (curve of first compound, second compound 0.0316 µM): 7.3 nM | IC50 [1]: 6.23 nM | IC50 [2]: 7.32 nM | IC50 [3]: 5.74 nM | IC50 [4]: < 0.316 nM | viability, T/C (second compound 0.0316 µM, first compound 0.000316 µM): 91.9% | viability, T/C (second compound 0.0316 µM, first compound 0.001 µM): 89.1% | viability, T/C (second compound 0.0316 µM, first compound 0.00316 µM): 71.1% | viability, T/C (second compound 0.0316 µM, first compound 0.01 µM): 41.9% | viability, T/C (second compound 0.0316 µM, first compound 0.0316 µM): 26.6% | viability, T/C (second compound 0.0316 µM, first compound 0.1 µM): 21.8% | viability, T/C [6]: 111% | viability, T/C [7]: 91.8% | viability, T/C [8]: 65.2% | viability, T/C [9]: 40.7% | viability, T/C [10]: 22.6% | viability, T/C [29]: 19.9% | viability, T/C [11]: 89.6% | viability, T/C [12]: 95.9% | viability, T/C [13]: 67.1% | viability, T/C [14]: 44.6% | viability, T/C [15]: 22.7% | viability, T/C [34]: 18.3% | viability, T/C [16]: 106% | viability, T/C [17]: 78.2% | viability, T/C [18]: 62.9% | viability, T/C [19]: 41.6% | viability, T/C [20]: 24.8% | viability, T/C [39]: 21.6% | viability, T/C [21]: 18.4% | viability, T/C [22]: 0.63% | viability, T/C [23]: 13.2% | viability, T/C [24]: 0.24% | viability, T/C [25]: 0.27% | viability, T/C [44]: 1.47%

COc1cc(OC)cc(N(CCNC(C)C)c2ccc3ncc(-c4cnn(C)c4)nc3c2)c1
viability, T/C (compound 0.1 µM): 101% [middle of 5 runs] | viability, T/C (compound 0.316 µM): 107% [middle of 5 runs] | viability, T/C (compound 1 µM): 107% [middle of 5 runs] | viability, T/C (compound 10 µM): 0.45% [middle of 4 runs] | IC50 (curve of compound): 4.66 µM [middle of 4 runs]

COc1cc2nccc(Oc3ccc(NC(=O)C4(C(=O)Nc5ccc(F)cc5)CC4)cc3)c2cc1OC + C=CC(=O)N1CCN(c2nc(=O)n(-c3c(C)ccnc3C(C)C)c3nc(-c4c(O)cccc4F)c(F)cc23)C(C)C1
IC50 [1]: > 10000 nM | IC50 [2]: 3110 nM | IC50 [3]: > 10000 nM | IC50 [4]: 2580 nM | IC50 [5]: 723 nM | viability, T/C [10]: 115% | viability, T/C [29]: 96.3% | viability, T/C [30]: 91.7% | viability, T/C [31]: 104% | viability, T/C [32]: 65.1% | viability, T/C [33]: 69% | viability, T/C [15]: 105% | viability, T/C [34]: 96.6% | viability, T/C [35]: 97.1% | viability, T/C [36]: 96.3% | viability, T/C [37]: 49.3% | viability, T/C [38]: 48.5% | viability, T/C [20]: 108% | viability, T/C [39]: 115% | viability, T/C [40]: 98.4% | viability, T/C [41]: 109% | viability, T/C [42]: 63.7% | viability, T/C [43]: 57.2% | viability, T/C [25]: 106% | viability, T/C [44]: 92.8% | viability, T/C [45]: 98.2% | viability, T/C [46]: 82.3% | viability, T/C [47]: 43% | viability, T/C [48]: 34.4% | viability, T/C [28]: 82.6% | viability, T/C [49]: 80.6% | viability, T/C [50]: 54.3% | viability, T/C [51]: 58.1% | viability, T/C [52]: 10.7% | viability, T/C [53]: 18.5%

CCN1CCN(Cc2ccc(Nc3ncc(F)c(-c4cc(F)c5nc(C)n(C(C)C)c5c4)n3)nc2)CC1 + CNCc1ccccc1-c1csc(C(C)Nc2nc(C)nc3cc(OC)c(OC)cc23)c1
IC50 [1]: 149 nM | IC50 [2]: 70.1 nM | IC50 [3]: 6.73 nM | IC50 [4]: < 3.16 nM | IC50 [5]: < 3.16 nM | viability, T/C [8]: 76.8% | viability, T/C [9]: 82.9% | viability, T/C [10]: 56.5% | viability, T/C [29]: 56.6% | viability, T/C [30]: 43.2% | viability, T/C [31]: 28.6% | viability, T/C [13]: 75.2% | viability, T/C [14]: 60.7% | viability, T/C [15]: 46.4% | viability, T/C [34]: 49% | viability, T/C [35]: 38.5% | viability, T/C [36]: 3.67% | viability, T/C [18]: 60.1% | viability, T/C [19]: 43.3% | viability, T/C [20]: 28.7% | viability, T/C [39]: 32.2% | viability, T/C [40]: 1.49% | viability, T/C [41]: 0.15% | viability, T/C [23]: 0.13% | viability, T/C [24]: 0.12% | viability, T/C [25]: 0.08% | viability, T/C [44]: 0.09% | viability, T/C [45]: 0.05% | viability, T/C [46]: 0.14% | viability, T/C [26]: 4.51% | viability, T/C [27]: 0.16% | viability, T/C [28]: 0.18% | viability, T/C [49]: 0.15% | viability, T/C [50]: 1.23% | viability, T/C [51]: 0.18%
